Experimental data: PubChem BioAssay AID330 (DTP/NCI, 2004)
Where “and” joins values, the source holds several entries; their conditions need not be identical. Identical values can stand only once. Inconclusive results and toxic doses are left out.

Test system: P388 leukemia ip, CD2F1 mice, survival T/C
Test: NCI In Vivo Anticancer Drug Screen. Data for tumor model P388 Leukemia (intraperitoneal) in CD2F1 (CDF1) mice
Settings: endpoint: median survival time, higher = longer survival
Procedure, shortened: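 Mice carrying the transplanted tumor received test compound or vehicle. Survival was recorded in each group, and the value is the treated-group measurement divided by that of the vehicle-treated control group.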

[1] = dose: 60.0 mg/kg/injection, schedule: Q01DX005 (ip), vehicle: saline with Tween-80
[2] = dose: 120.0 mg/kg/injection, schedule: Q01DX005 (ip), vehicle: saline with Tween-80
[3] = dose: 240.0 mg/kg/injection, schedule: Q01DX005 (ip), vehicle: saline with Tween-80
[4] = dose: 25.0 mg/kg/injection, schedule: Q01DX005 (ip), vehicle: saline with Tween-80
[5] = dose: 50.0 mg/kg/injection, schedule: Q01DX005 (ip), vehicle: saline with Tween-80
[6] = dose: 50.0 mg/kg/injection, schedule: Q01DX009 (ip), vehicle: saline
[7] = dose: 100.0 mg/kg/injection, schedule: Q01DX009 (ip), vehicle: saline
[8] = dose: 200.0 mg/kg/injection, schedule: Q01DX009 (ip), vehicle: saline
[9] = dose: 50.0 mg/kg/injection, schedule: Q01DX009 (ip), vehicle: saline with Tween-80
[10] = dose: 100.0 mg/kg/injection, schedule: Q01DX009 (ip), vehicle: saline with Tween-80
[11] = dose: 200.0 mg/kg/injection, schedule: Q01DX009 (ip), vehicle: saline with Tween-80
[12] = dose: 50.0 mg/kg/injection, schedule: Q01DX005 (ip), vehicle: Klucel (hydroxypropylcellulose) (HPC)
[13] = dose: 100.0 mg/kg/injection, schedule: Q01DX005 (ip), vehicle: Klucel (hydroxypropylcellulose) (HPC)
[14] = dose: 200.0 mg/kg/injection, schedule: Q01DX005 (ip), vehicle: Klucel (hydroxypropylcellulose) (HPC)
[15] = dose: 12.5 mg/kg/injection, schedule: Q01DX009 (ip), vehicle: saline
[16] = dose: 400.0 mg/kg/injection, schedule: Q01DX009 (ip), vehicle: saline with Tween-80
[17] = dose: 6.25 mg/kg/injection, schedule: Q01DX009 (ip), vehicle: Klucel (hydroxypropylcellulose) (HPC)
[18] = dose: 12.5 mg/kg/injection, schedule: Q01DX009 (ip), vehicle: Klucel (hydroxypropylcellulose) (HPC)
[19] = dose: 25.0 mg/kg/injection, schedule: Q01DX009 (ip), vehicle: Klucel (hydroxypropylcellulose) (HPC)
[20] = dose: 50.0 mg/kg/injection, schedule: Q01DX009 (ip), vehicle: Klucel (hydroxypropylcellulose) (HPC)
[21] = dose: 50.0 mg/kg/injection, schedule: Q01DX009 (ip), vehicle: water
[22] = dose: 75.0 mg/kg/injection, schedule: Q01DX009 (ip), vehicle: water
[23] = dose: 100.0 mg/kg/injection, schedule: Q01DX005 (ip), vehicle: saline with Tween-80

## OCc1sccc1-n1cccc1
[1]
  T/C: 104 % of control
[2]
  T/C: 104 % of control
[3]
  T/C: 104 % of control

## COc1cc(-c2nn3c(C)c(-c4ccccc4)nc3s2)cc(OC)c1OC
[1]
  T/C: 101 % of control
[2]
  T/C: 92 % of control
[3]
  T/C: 102 % of control

## CC1CCC(C)N(C)C1 (stereo not given)
[4]
  T/C: 98 % of control
[5]
  T/C: 102 % of control

## C1CC2OCC1O2 (stereo not given)
[6]
  T/C: 100 % of control
[7]
  T/C: 106 % of control
[8]
  T/C: 100 % of control

## COC(=O)c1ccccc1NC(C)=NC(C)(C)C
[9]
  T/C: 103 % of control
[10]
  T/C: 90 % of control
[11]
  T/C: 90 % of control

## Cc1cc(NCCCCCCNc2cc(C)nc3cc([N+](=O)[O-])ccc23)c2ccc([N+](=O)[O-])cc2n1
dose: 50.0 mg/kg/injection, schedule: Q01DX009 (ip), vehicle: other
  T/C: 98 % of control
dose: 100.0 mg/kg/injection, schedule: Q01DX009 (ip), vehicle: other
  T/C: 99 % of control
dose: 200.0 mg/kg/injection, schedule: Q01DX009 (ip), vehicle: other
  T/C: 96 % of control
dose: 400.0 mg/kg/injection, schedule: Q01DX009 (ip), vehicle: other
  T/C: 103 % of control

## CC(O)CNC(=O)Nc1ccccc1 (stereo not given)
dose: 60.0 mg/kg/injection, schedule: Q01DX005 (ip), vehicle: Klucel (hydroxypropylcellulose) (HPC)
  T/C: 97 % of control
dose: 120.0 mg/kg/injection, schedule: Q01DX005 (ip), vehicle: Klucel (hydroxypropylcellulose) (HPC)
  T/C: 95 % of control
dose: 240.0 mg/kg/injection, schedule: Q01DX005 (ip), vehicle: Klucel (hydroxypropylcellulose) (HPC)
  T/C: 88 % of control

## CC(C)(C)N1OC2C=CC1CC2O (stereo not given) (tested in a mixture with another compound)
dose: 25.0 mg/kg/injection, schedule: Q01DX001 (ip), vehicle: Klucel (hydroxypropylcellulose) (HPC)
  T/C: 113 % of control
dose: 50.0 mg/kg/injection, schedule: Q01DX001 (ip), vehicle: Klucel (hydroxypropylcellulose) (HPC)
  T/C: 114 % of control
dose: 100.0 mg/kg/injection, schedule: Q01DX001 (ip), vehicle: Klucel (hydroxypropylcellulose) (HPC)
  T/C: 107 % of control

## CN(C)CCCC1(c2cccc(Cl)c2)SC(C)(C)c2ccccc21 (stereo not given)
dose: 25.0 mg/kg/injection, schedule: Q01DX001 (ip), vehicle: saline
  T/C: 97 % of control
dose: 50.0 mg/kg/injection, schedule: Q01DX001 (ip), vehicle: saline
  T/C: 93 % of control

## NC(=O)c1nnn2c1nc(N)c1cc(Cl)ccc12
[12]
  T/C: 100 % of control
[13]
  T/C: 104 % of control
[14]
  T/C: 99 % of control

## COC(=O)CCCCCCCCCCN(CCCl)CCCl
dose: 6.25 mg/kg/injection, schedule: Q01DX009 (ip), vehicle: saline
  T/C: 160 % of control and 169 % of control
[15]
  T/C: 89 % of control

## O=C1OC(C(=O)O)c2ccc3c(c21)OCO3 (stereo not given)
[10]
  T/C: 100 % of control
[11]
  T/C: 98 % of control
[16]
  T/C: 91 % of control

## COc1c(Cl)c(=O)oc2ccc(Cl)cc12
[17]
  T/C: 104 % of control
[18]
  T/C: 99 % of control
[19]
  T/C: 97 % of control
[20]
  T/C: 104 % of control

## c1ccc(-c2cc3cc4ccccc4cn3c2)cc1
[9]
  T/C: 105 % of control
[10]
  T/C: 108 % of control and 112 % of control and 92 % of control
[11]
  T/C: 117 % of control and 96 % of control
[16]
  T/C: 108 % of control and 120 % of control
dose: 600.0 mg/kg/injection, schedule: Q01DX009 (ip), vehicle: saline with Tween-80
  T/C: 117 % of control

## C#CCNC(=S)N/N=C(\C)c1ccccn1
dose: 3.13 mg/kg/injection, schedule: Q01DX009 (ip), vehicle: saline with Tween-80
  T/C: 97 % of control
dose: 6.25 mg/kg/injection, schedule: Q01DX009 (ip), vehicle: saline with Tween-80
  T/C: 97 % of control
dose: 12.5 mg/kg/injection, schedule: Q01DX009 (ip), vehicle: saline with Tween-80
  T/C: 103 % of control

## CCN(CC)CCCC(C)Nc1cc(C)nc2cc(N(C)C)ccc12 (stereo not given)
[17]
  T/C: 99 % of control
[18]
  T/C: 101 % of control
[19]
  T/C: 109 % of control

## COc1cc2c(cc1OC)-c1cc3cc(OC)c(OC)cc3c(C)[n+]1CC2 (tested in a mixture with another compound)
dose: 1.56 mg/kg/injection, schedule: Q01DX009 (ip), vehicle: water
  T/C: 102 % of control
dose: 3.13 mg/kg/injection, schedule: Q01DX009 (ip), vehicle: water
  T/C: 102 % of control
dose: 6.25 mg/kg/injection, schedule: Q01DX009 (ip), vehicle: water
  T/C: 111 % of control
dose: 12.5 mg/kg/injection, schedule: Q01DX009 (ip), vehicle: water
  T/C: 118 % of control
dose: 14.8 mg/kg/injection, schedule: Q01DX009 (ip), vehicle: water
  T/C: 113 % of control
dose: 22.0 mg/kg/injection, schedule: Q01DX009 (ip), vehicle: water
  T/C: 109 % of control
dose: 33.0 mg/kg/injection, schedule: Q01DX009 (ip), vehicle: water
  T/C: 117 % of control
[21]
  T/C: 116 % of control
[22]
  T/C: 97 % of control

## CC(C)NC(=S)S
dose: 25.0 mg/kg/injection, schedule: Q01DX009 (ip), vehicle: saline sonified
  T/C: 104 % of control
dose: 50.0 mg/kg/injection, schedule: Q01DX009 (ip), vehicle: saline sonified
  T/C: 100 % of control
dose: 100.0 mg/kg/injection, schedule: Q01DX009 (ip), vehicle: saline sonified
  T/C: 109 % of control

## Nc1cccc(S(=O)(=O)Nc2ncc(Cl)cn2)c1.[Ag]
[6]
  T/C: 93 % of control
[7]
  T/C: 108 % of control

## Cn1nc(CC#N)c2c(=N)n(N)cnc21
[19]
  T/C: 119 % of control
[20]
  T/C: 109 % of control
dose: 100.0 mg/kg/injection, schedule: Q01DX009 (ip), vehicle: Klucel (hydroxypropylcellulose) (HPC)
  T/C: 104 % of control
dose: 200.0 mg/kg/injection, schedule: Q01DX009 (ip), vehicle: Klucel (hydroxypropylcellulose) (HPC)
  T/C: 113 % of control

## O=C(Nc1cccc2ccccc12)ON1C(=O)c2ccccc2C1=O
[4]
  T/C: 92 % of control
[5]
  T/C: 99 % of control and 113 % of control and 96 % of control
[23]
  T/C: 110 % of control and 119 % of control

## COC12CC(=O)C(C(C)=O)=C(O)C1(C)c1c(O)c(C)c(O)c(C(C)=O)c1O2 (stereo not given)
dose: 6.25 mg/kg/injection, schedule: Q01DX009 (ip), vehicle: gum acacia
  T/C: 105 % of control and 108 % of control
dose: 12.5 mg/kg/injection, schedule: Q01DX009 (ip), vehicle: gum acacia
  T/C: 109 % of control and 111 % of control
dose: 25.0 mg/kg/injection, schedule: Q01DX009 (ip), vehicle: gum acacia
  T/C: 111 % of control and 115 % of control
dose: 50.0 mg/kg/injection, schedule: Q01DX009 (ip), vehicle: gum acacia
  T/C: 107 % of control and 113 % of control

## N#CC1=C(O)NC(O)=C(C#N)C12C(=O)Nc1ccccc12
[12]
  T/C: 98 % of control
[5]
  T/C: 104 % of control
[13]
  T/C: 101 % of control
[23]
  T/C: 104 % of control
[14]
  T/C: 99 % of control
dose: 200.0 mg/kg/injection, schedule: Q01DX005 (ip), vehicle: saline with Tween-80
  T/C: 104 % of control

## CN1c2ccccc2SC2C(c3ccccc3)=NOC21 (stereo not given)
dose: 3.75 mg/kg/injection, schedule: Q01DX005 (ip), vehicle: saline with Tween-80
  T/C: 98 % of control
dose: 7.5 mg/kg/injection, schedule: Q01DX005 (ip), vehicle: saline with Tween-80
  T/C: 93 % of control
dose: 15.0 mg/kg/injection, schedule: Q01DX005 (ip), vehicle: saline with Tween-80
  T/C: 90 % of control
dose: 30.0 mg/kg/injection, schedule: Q01DX005 (ip), vehicle: saline with Tween-80
  T/C: 88 % of control
[1]
  T/C: 86 % of control
[3]
  T/C: 89 % of control

## CC(=O)NNC(=O)c1ccccn1
[15]
  T/C: 90 % of control
dose: 25.0 mg/kg/injection, schedule: Q01DX009 (ip), vehicle: saline
  T/C: 92 % of control
[6]
  T/C: 96 % of control
[21]
  T/C: 110 % of control
[22]
  T/C: 110 % of control
[7]
  T/C: 100 % of control
dose: 100.0 mg/kg/injection, schedule: Q01DX009 (ip), vehicle: water
  T/C: 120 % of control
dose: 125.0 mg/kg/injection, schedule: Q01DX009 (ip), vehicle: water
  T/C: 120 % of control
[8]
  T/C: 88 % of control
